Laboratory results published in patent US10759748B2, “Compounds as L-cystine crystallization inhibitors and uses thereof” (NEW YORK UNIVERSITY, priority 2011, dated 2020).

Legend:
[1] = Real time in situ AFM step velocity measurements of L-cystine crystal growth with additive; conditions: for Vo/V (inverse of V/Vo): higher = more effective inhibition; for V/Vo (normalized velocity of step advancement): supersaturated L-cystine solution, lower = more effective inhibition
Procedure: A Digital Instruments (Santa Barbara, Calif.) Nanoscope IIIa Multimode system is used for topographical and lattice imaging. All measurements are performed in contact mode using Veeco NP_B Si3N4 cantilever tips with a spring constant of 0.12 N/m (triangular, 196 μm length, 41 μm width) on a glass cantilever holder, and a liquid cell is created for in situ step velocity measurements. All L-cystine crystals for AFM measurements are prepared by the method described herein. Crystals are transferred onto an AFM specimen disk coated with partially cured (1 hr) UV-curable optical cement (Type SK-9, EMS Acquisition Corp.) by gently pressing the disk against hexagonal platelets or L-cystine needles isolated by filtration (Whatman Nuclepore membrane, 8 μm). The (0001) face of hexagonal platelets is exposed normal to the disk for AFM analysis with growth occurring along equivalent {1010} faces in the lateral directions, while the sides of L-cystine needles are exposed normal to the disc. The partially cured polymer with adhered crystals is completely cured by additional UV radiation (2 hrs) prior to analysis. Measurements of individual step heights for hexagonal L-cystine crystals are acquired in air (contact mode) at a scan rate of 1.00 Hz and 256 samples per line over a 15×15 μm^2 surface area. Integral and proportional gains are set to the highest possible values without obtaining feedback. Four hexagonal crystals (5 areas per crystal) are analyzed for statistical step height distributions, which are calculated from >10^3 individual steps. Lattice-resolved images of crystal surfaces are acquired in water (contact mode) using a scan rate of 112 Hz over a 12×12 nm^2 area.
Real time in situ step velocity measurements of L-cystine growth are assessed along six structurally-equivalent {1010} faces of the hexagonal structure. A liquid cell is created with the glass cantilever tip holder, and working solutions are injected through a 1-mL syringe. Prior to injecting the growth medium (i.e. supersaturated L-cystine solution), crystals are etched with deionized water in the fluid cell for one hour to remove amorphous deposits or impurities that may be present on the surface. Supersaturated solutions (0.5 g/L) are generated by adding L-cystine to deionized water, boiling the solution on a heating mantle for 20 min to completely dissolve the solute, and allowing the solution to cool for 20 min on the heating mantle before transferring the solution (via syringe) to the AFM fluid cell. This method allows the solution to gradually cool to room temperature prior to AFM measurements in an effort to minimize premature nucleation of L-cystine in the growth solution.
The effect of the compound of invention (additives) on crystal growth rates is investigated. Additives are combined with the supersaturated L-cystine following the 20 min cool down period (as discussed above) to avoid denaturing biological additives at higher temperature. A small volume (0.2 mL) of concentrated additive is mixed with 4.8 mL of L-cystine to generate 0.48 g/L L-cystine solutions with additives of varying concentrations. Control measurements without additive are performed in a similar manner, replacing concentrated additive solutions deionized water to maintain a constant L-cystine concentration. Data collection is started immediately after injecting the working solution into the AFM liquid cell. For each measurement, growth is first assessed in the absence of additive, then in the presence of additive on the identical area of the crystal surface to analyze relative changes in step velocity. Measurements are acquired at static conditions without refreshment of growth solution using supersaturated L-cystine solutions […] than the solubility of L-cystine in water, which is reported as 0.4-0.7 mM (pH 7, 25° C.). […] At static conditions, solute is depleted from solution during growth, leading to a slight decrease in the step velocity with increasing time. […]

[2] = pH 7, 25° C.; cited from earlier work

## COC(=O)[C@@H](N)CSSC[C@H](N)C(=O)OC [Compound 1, L-cystine dimethyl ester]
[1]; additive 0.015 mM
  Vo/V (inverse of V/Vo): 2.62
  V/Vo (normalized velocity of step advancement): 0.38

## N[C@@H](CSSC[C@H](N)C(=O)Oc1ccccc1)C(=O)Oc1ccccc1 [Compound 2, L-cystine diphenyl ester]
[1]; additive 0.015 mM
  Vo/V (inverse of V/Vo): 2.44
  V/Vo (normalized velocity of step advancement): 0.41

## COC(=O)[C@@H](N)CS [Compound 3, L-cysteine methyl ester]
[1]; additive 0.03 mM
  Vo/V (inverse of V/Vo): 2.05
  V/Vo (normalized velocity of step advancement): 0.49

## CCOC(=O)[C@@H](N)CSSC[C@H](N)C(=O)OCC [Compound 4, L-cystine diethyl ester]
[1]; additive 0.015 mM
  Vo/V (inverse of V/Vo): 1.79
  V/Vo (normalized velocity of step advancement): 0.56

## COC(=O)[C@@H](N)CCSSCC[C@H](N)C(=O)OC [Compound 5, L-homocystine dimethyl ester]
[1]; additive 0.015 mM
  Vo/V (inverse of V/Vo): 1.59
  V/Vo (normalized velocity of step advancement): 0.63

## CC(C)OC(=O)[C@@H](N)CSSC[C@H](N)C(=O)OC(C)C [Compound 6, L-cystine diisopropyl ester]
[1]; additive 0.015 mM
  Vo/V (inverse of V/Vo): 1.55
  V/Vo (normalized velocity of step advancement): 0.64

## COC(=O)[C@@H](N)CSSC[C@H](N)C(=O)O [Compound 7, L-cystine methyl ester]
[1]; additive 0.015 mM
  Vo/V (inverse of V/Vo): 1.47
  V/Vo (normalized velocity of step advancement): 0.68

## CC(C)(C)OC(=O)[C@@H](N)CSSC[C@H](N)C(=O)OC(C)(C)C [Compound 8, L-cystine ditert-butyl ester]
[1]; additive 0.015 mM
  Vo/V (inverse of V/Vo): 1.43
  V/Vo (normalized velocity of step advancement): 0.7

## CC(S)C(=O)NCC(=O)O (centres unmarked) [Compound 9, N-(2-Mercapto-propionyl)glycine, reference compound]
[1]; additive 0.03 mM
  Vo/V (inverse of V/Vo): 1.35
  V/Vo (normalized velocity of step advancement): 0.74

## COC(=O)[C@@H](N)C/C=C/C[C@H](N)C(=O)OC [Compound 10, L-dimethyl 2,7-diaminooct-4-enedioate]
[1]; additive 0.015 mM
  Vo/V (inverse of V/Vo): 1.23
  V/Vo (normalized velocity of step advancement): 0.81

## CC(C)(C)OC(=O)N[C@@H](CSSC[C@H](NC(=O)OC(C)(C)C)C(=O)O)C(=O)O [Compound 11, Nα,Nα′-di-Boc-L-cystine, reference compound]
[1]; additive 0.09 mM
  Vo/V (inverse of V/Vo): 1.23
  V/Vo (normalized velocity of step advancement): 0.81

## COC(=O)[C@@H](N)CCCC[C@H](N)C(=O)OC [Compound 12, L-dimethyl 2,7-diaminooctanedioate]
[1]; additive 0.015 mM
  Vo/V (inverse of V/Vo): 1.09
  V/Vo (normalized velocity of step advancement): 0.92

## N[C@@H](CCCC[C@H](N)C(=O)O)C(=O)O [Compound 14, L-diaminooctanedioic acid]
[1]; additive 0.015 mM
  Vo/V (inverse of V/Vo): 1.03
  V/Vo (normalized velocity of step advancement): 0.97

## NCCSSCCN [Compound 16, cystamine]
[1]; additive 0.015 mM
  Vo/V (inverse of V/Vo): 1
  V/Vo (normalized velocity of step advancement): 1

## N[C@@H](CS)C(=O)O [Compound 17, L-cysteine, reference compound]
[1]; additive 0.03 mM
  Vo/V (inverse of V/Vo): 1
  V/Vo (normalized velocity of step advancement): 1

## N[C@@H](CCSSCC[C@H](N)C(=O)O)C(=O)O [Compound 18, L-Homocystine, reference compound]
[1]; additive 0.015 mM
  Vo/V (inverse of V/Vo): 0.95
  V/Vo (normalized velocity of step advancement): 1.05

## COC(=O)[C@@H](N)CO [Compound 19, L-serine methyl ester]
[1]; additive 0.03 mM
  Vo/V (inverse of V/Vo): 0.93
  V/Vo (normalized velocity of step advancement): 1.07

## N[C@@H](CSSC[C@H](N)C(=O)O)C(=O)O [L-cystine]
[2]
  solubility of L-cystine in water: 400 to 700 µM
